Source: patent publication US8785614B2, “Aberrantly methylated genes in pancreatic cancer” (The Johns Hopkins University, priority 2003, dated 2014)
Where two headings read alike, the source gives them in different places.

Test system: four pancreatic cancer cell lines (AsPC1, Hs766T, MiaPaCa2, Panc1)
Format: cell-based, human
Description: These include a large panel of novel targets for silencing by histone deacetylation including several known tumor suppressor genes or cell cycle-regulatory genes (ING1, p57KIP2, CHES1, CHFR, GADD45B, and others).

## CC(/C=C/C(=O)NO)=C\[C@@H](C)C(=O)c1ccc(N(C)C)cc1 [TSA, trichostatin A]
  changes in phenotypes during the treatment period: did not result in apparent changes in their phenotypes
ANGPT2
  Induced by TSA alone?: No
BARD1
  Induced by TSA alone?: No
BIK
  Induced by TSA alone?: Yes
BNIP3
  Induced by TSA alone?: Yes
BNIP3 (Table 3)
  Induced by TSA alone?: Yes
BST2
  Induced by TSA alone?: No
BST2 (Table 3)
  Induced by TSA alone?: No
CACNA1G
  Induced by TSA alone?: Yes
CASP5
  Induced by TSA alone?: No
CCNA1
  Induced by TSA alone?: No
CCNE2
  Induced by TSA alone?: No
CDC25A
  Induced by TSA alone?: No
CDH3
  Induced by TSA alone?: No
CDKN1A (p21)
  Induced by TSA alone?: No
CDKN1C
  Induced by TSA alone?: Yes
CDKN2A (p16)
  Induced by TSA alone?: No
CLDN5
  Induced by TSA alone?: No
CLDN7
  Induced by TSA alone?: No
CRIP 1
  Induced by TSA alone?: Yes
CRLF1
  Induced by TSA alone?: Yes
CSF1
  Induced by TSA alone?: Yes
CSF3
  Induced by TSA alone?: No
Cdc42 effector protein 2
  Induced by TSA alone?: No
DAPK2
  Induced by TSA alone?: No
DAZL
  Induced by TSA alone?: Yes
DEAD box RNA helicase (VASA)
  Induced by TSA alone?: No
DR3
  Induced by TSA alone?: No
FOXE1
  Induced by TSA alone?: No
GAGE1
  Induced by TSA alone?: Yes
GAGE2
  Induced by TSA alone?: Yes
GAGE3
  Induced by TSA alone?: Yes
GAGE4
  Induced by TSA alone?: Yes
GAGE6
  Induced by TSA alone?: Yes
GAGE7
  Induced by TSA alone?: Yes
GAGE7B
  Induced by TSA alone?: Yes
GAS1
  Induced by TSA alone?: No
HOXA1
  Induced by TSA alone?: No
HSPA1A
  Induced by TSA alone?: Yes
IGF2
  Induced by TSA alone?: No
IL1R1
  Induced by TSA alone?: No
ISG20
  Induced by TSA alone?: No
ITM3
  Induced by TSA alone?: Yes
JPH3
  Induced by TSA alone?: No
KLK10
  Induced by TSA alone?: No
KRT17
  Induced by TSA alone?: No
LDOC1
  Induced by TSA alone?: No
LHX1
  Induced by TSA alone?: No
LHX2
  Induced by TSA alone?: No
LIPC
  Induced by TSA alone?: No
MAGE1
  Induced by TSA alone?: Yes
MAGEC1
  Induced by TSA alone?: Yes
MATN1
  Induced by TSA alone?: Yes
MLH1
  Induced by TSA alone?: Yes
NEFH
  Induced by TSA alone?: Yes
NK4
  Induced by TSA alone?: Yes
NPTX2
  Induced by TSA alone?: Yes
PAX6
  Induced by TSA alone?: No
PAX6 (Table 3)
  Induced by TSA alone?: No
PDYN
  Induced by TSA alone?: No
PIG11 (Table 3)
  Induced by TSA alone?: No
PLAT
  Induced by TSA alone?: No
PLEK2
  Induced by TSA alone?: No
PRG1
  Induced by TSA alone?: Yes
S100A2
  Induced by TSA alone?: No
S100P
  Induced by TSA alone?: No
SALL1
  Induced by TSA alone?: No
SARP2
  Induced by TSA alone?: No
SARP2 (Table 3)
  Induced by TSA alone?: No
SGCE
  Induced by TSA alone?: Yes
SMARCA1
  Induced by TSA alone?: No
SPANXC
  Induced by TSA alone?: Yes
ST14
  Induced by TSA alone?: Yes
STAT3
  Induced by TSA alone?: Yes
TERT
  Induced by TSA alone?: No
TIMP3
  Induced by TSA alone?: No
TJP2
  Induced by TSA alone?: No
TNF
  Induced by TSA alone?: No
TSA alone
  number of the 11 genes with aberrantly methylated CpG islands whose expression was induced: 4 genes
UCHL1
  Induced by TSA alone?: Yes
UCHL1 (Table 3)
  Induced by TSA alone?: Yes
WISP2
  Induced by TSA alone?: No
WIT-1
  Induced by TSA alone?: No
WNT7A
  Induced by TSA alone?: Yes
XAGE-1
  Induced by TSA alone?: Yes
XAGE-1 (Table 3)
  Induced by TSA alone?: Yes
activity-regulated cytoskeleton-associated protein (APC)
  Induced by TSA alone?: Yes
aik3
  Induced by TSA alone?: Yes
Basic fibroblast growth factor (FGF)
  Induced by TSA alone?: Yes
Cytovillin 2 (VIL2, ezrin)
  Induced by TSA alone?: No
Granulocytemacrophage colony-stimulating factor (M11734)
  Induced by TSA alone?: Yes
interferon, alpha-inducible protein (NM_022873)
  Induced by TSA alone?: Yes
Junction adhesion molecule (AF154005)
  Induced by TSA alone?: Yes
Matrix metalloproteinase 8 (MMP3)
  Induced by TSA alone?: No
nucleotide-binding site protein 1 (AF298547)
  Induced by TSA alone?: Yes
p53-induced protein (PIGII)
  Induced by TSA alone?: No
reprimo
  Induced by TSA alone?: No
Stratifin (14-3-3 sigma)
  Induced by TSA alone?: Yes
Stromal antigen 3 (STAG5)
  Induced by TSA alone?: Yes
Synovial sarcoma, X breakpoint 2 (AF257500)
  Induced by TSA alone?: Yes
testin
  Induced by TSA alone?: Yes
transketolase-like protein (X91817)
  Induced by TSA alone?: Yes
